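48-hour exposure; five concentrations; linearly interpolated endpoints. GI50 = concentration required for 50% inhibition of growth.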 Calls of active or inactive are those of the source. Rule as the data show it: active = GI50 up to about 1.1 µM and inactive = higher.
Assays:
Test in all cases: DTP human tumour cell line panel, 48 h
[1] = system: OVCAR-3
[2] = system: MDA-MB-435
[3] = system: T47D
[4] = system: CAKI-1
[5] = system: NCI-H460
[6] = system: UACC-62
[7] = system: OVCAR-5
[8] = system: SW-620
[9] = system: KM12
[10] = system: RXF 393
[11] = system: LOX IMVI
[12] = system: HCT-15
[13] = system: UO-31
[14] = system: SR
[15] = system: U-251
[16] = system: 786-0
[17] = system: HT-29
[18] = system: SF-295
[19] = system: CCRF-CEM
[20] = system: M14
[21] = system: SK-MEL-28
[22] = system: OVCAR-8
[23] = system: NCI-H522
[24] = system: MCF7
[25] = system: EKVX
[26] = system: HOP-62
[27] = system: BT-549
[28] = system: SK-MEL-5
[29] = system: COLO 205
[30] = system: SNB-75
[31] = system: SNB-19
[32] = system: ACHN
[33] = system: NCI/ADR-RES
[34] = system: DU-145
[35] = system: K562
[36] = system: Malme-3M
[37] = system: SK-MEL-2
[38] = system: Hs-578T
[39] = system: PC-3
[40] = system: IGROV-1
[41] = system: TK-10
[42] = system: SN12C
[43] = system: MDA-MB-231
[44] = system: HCT-116
[45] = system: RPMI-8226
[46] = system: NCI-H23
[47] = system: OVCAR-4
[48] = system: SF-268
[49] = system: MOLT-4
[50] = system: A498
[51] = system: HOP-92
[52] = system: SK-OV-3
[53] = system: SF-539
[54] = system: A549
[55] = system: MDA-N
[56] = system: UACC-257
[57] = system: NCI-H226
[58] = system: HL-60

O=C(O)c1cc(Cl)cc(Cc2cc(Cl)cc(C(=O)O)c2O)c1O
GI50 [1]: > 100 µM (inactive) | GI50 [2]: > 100 µM (inactive) | GI50 [3]: > 100 µM (inactive) | GI50 [4]: > 100 µM (inactive) | GI50 [5]: > 100 µM (inactive) | GI50 [6]: > 100 µM (inactive) | GI50 [7]: > 100 µM (inactive) | GI50 [8]: > 100 µM (inactive) | GI50 [9]: > 100 µM (inactive) | GI50 [10]: > 100 µM (inactive) | GI50 [11]: > 100 µM (inactive) | GI50 [12]: > 100 µM | GI50 [13]: > 100 µM (inactive) | GI50 [14]: > 100 µM (inactive) | GI50 [15]: > 100 µM (inactive) | GI50 [16]: > 100 µM (inactive) | GI50 [17]: > 100 µM (inactive) | GI50 [18]: > 100 µM (inactive) | GI50 [19]: > 100 µM (inactive) | GI50 [20]: > 100 µM (inactive) | GI50 [21]: > 100 µM (inactive) | GI50 [22]: > 100 µM (inactive) | GI50 [23]: > 100 µM (inactive) | GI50 [24]: > 100 µM (inactive) | GI50 [25]: > 100 µM (inactive) | GI50 [26]: > 100 µM (inactive) | GI50 [27]: > 100 µM (inactive) | GI50 [28]: > 100 µM (inactive) | GI50 [29]: > 100 µM (inactive) | GI50 [30]: > 100 µM (inactive) | GI50 [31]: > 100 µM (inactive) | GI50 [32]: > 100 µM (inactive) | GI50 [33]: > 100 µM (inactive) | GI50 [34]: > 100 µM (inactive) | GI50 [35]: > 100 µM (inactive) | GI50 [36]: > 100 µM (inactive) | GI50 [37]: > 100 µM (inactive) | GI50 [38]: > 100 µM (inactive) | GI50 [39]: > 100 µM (inactive) | GI50 [40]: > 100 µM (inactive) | GI50 [41]: > 100 µM (inactive) | GI50 [42]: > 100 µM (inactive) | GI50 [43]: > 100 µM (inactive) | GI50 [44]: > 100 µM (inactive) | GI50 [45]: > 100 µM (inactive) | GI50 [46]: > 100 µM (inactive) | GI50 [47]: > 100 µM (inactive) | GI50 [48]: > 100 µM (inactive) | GI50 [49]: > 100 µM (inactive) | GI50 [50]: > 100 µM (inactive) | GI50 [51]: > 100 µM (inactive) | GI50 [52]: > 100 µM (inactive) | GI50 [53]: > 100 µM (inactive) | GI50 [54]: > 100 µM (inactive) | GI50 [55]: > 100 µM (inactive)

O=S(=O)(c1ccc(I)cc1)N(c1ccccc1)S(=O)(=O)C(F)(F)C(F)(F)C(F)(F)C(F)(F)F
GI50 [1]: 22.6 µM (inactive) | GI50 [2]: > 100 µM (inactive) | GI50 [3]: 35.5 µM (inactive) | GI50 [4]: 34.1 µM (inactive) | GI50 [5]: 31.9 µM (inactive) | GI50 [6]: 25.5 µM (inactive) | GI50 [7]: 24.9 µM (inactive) | GI50 [8]: 34.7 µM (inactive) | GI50 [9]: 18.8 µM (inactive) | GI50 [10]: 24.8 µM (inactive) | GI50 [11]: 96.2 µM (inactive) | GI50 [12]: 41.2 µM | GI50 [13]: 55.8 µM (inactive) | GI50 [56]: > 100 µM (inactive) | GI50 [14]: 56.5 µM (inactive) | GI50 [15]: 75.2 µM (inactive) | GI50 [16]: 45.7 µM (inactive) | GI50 [17]: 22.4 µM (inactive) | GI50 [18]: 24 µM (inactive) | GI50 [19]: 40.9 µM (inactive) | GI50 [20]: 34.8 µM (inactive) | GI50 [21]: 40.6 µM (inactive) | GI50 [22]: 48 µM (inactive) | GI50 [23]: 28.2 µM (inactive) | GI50 [24]: 26.9 µM (inactive) | GI50 [25]: 40.8 µM (inactive) | GI50 [26]: 24.3 µM (inactive) | GI50 [27]: > 100 µM (inactive) | GI50 [29]: 40 µM (inactive) | GI50 [31]: 74.3 µM (inactive) | GI50 [32]: 58.2 µM (inactive) | GI50 [33]: 43.3 µM (inactive) | GI50 [34]: 46.7 µM (inactive) | GI50 [35]: 41.6 µM (inactive) | GI50 [36]: 18.6 µM (inactive) | GI50 [37]: 29.2 µM (inactive) | GI50 [38]: 30.2 µM (inactive) | GI50 [39]: 38.7 µM (inactive) | GI50 [40]: > 100 µM (inactive) | GI50 [41]: 14.2 µM (inactive) | GI50 [57]: 22.9 µM (inactive) | GI50 [58]: 97.7 µM (inactive) | GI50 [42]: > 100 µM (inactive) | GI50 [43]: 23 µM (inactive) | GI50 [44]: 19.9 µM (inactive) | GI50 [45]: 42.7 µM (inactive) | GI50 [46]: 43.2 µM (inactive) | GI50 [47]: 24.5 µM (inactive) | GI50 [49]: 39.4 µM (inactive) | GI50 [51]: 15.4 µM (inactive) | GI50 [52]: 26.4 µM (inactive) | GI50 [53]: 35.6 µM (inactive) | GI50 [54]: 31.5 µM (inactive) | GI50 [55]: 60.1 µM (inactive)
